The values below come from ChEMBL document CHEMBL6127043, “Design and synthesis of pyrano[2,3-c]pyrazole-4-aminoquinoline hybrids as effective antimalarial compounds” (Eur J Med Chem, 2024).

The test system of data set [1] is Plasmodium falciparum. Put plainly: Antimalarial activity against chloroquine-resistant Plasmodium falciparum K1 incubated for 72 hrs by SYBR green I dye based fluorescence analysis. It is filed as functional, organism-based. As to conditions: K1, 72 h.
A short description of data set [2]: Selectivity index, ratio of IC50 for cytotoxicity against African green monkey Vero cells to IC50 for antimalarial activity against Plasmodium falciparum W2. As to conditions: Vero cells versus Plasmodium falciparum W2, read-out: Ratio IC50. It is filed as toxicity, cell-based.
The subject of data set [3] is Plasmodium falciparum. Put plainly: Antimalarial activity against chloroquine-sensitive ring stage Plasmodium falciparum 3D7 infected in erythrocytes assessed as reduction in parasite growth measured at 48 hrs interval by Giemsa staining based microscopic analysis. It is filed as functional, organism-based. To be noted: 3D7, Erythrocyte.
The test system of data set [4] is Plasmodium falciparum. Put plainly: Antimalarial activity against chloroquine-resistant ring stage Plasmodium falciparum K1 infected in erythrocytes assessed as reduction in parasite growth measured at 48 hrs interval by Giemsa staining based microscopic analysis. It is filed as functional, organism-based. As to conditions: K1, Erythrocyte.
A short description of data set [5]: Cytotoxicity against human WRL68 cells assessed as reduction in cell viability incubated for 72 hrs by MTT assay. It is filed as toxicity, cell-based. For orientation: Tetrazolium assays rely on reduction of a dye to a coloured formazan, in cell work by metabolically active cells.
Data set [6] in a line: Selectivity index, ratio of IC50 for cytotoxicity against human WRL68 cells to IC50 for antimalarial activity against Plasmodium falciparum 3D7 infected in erythrocytes. It is filed as toxicity, cell-based. As to conditions: WRL68 cells versus Plasmodium falciparum 3D7 in erythrocytes, read-out: Ratio IC50.
The subject of data set [7] is Plasmodium falciparum. Put plainly: Resistance index, ratio of IC50 for antimalarial activity against chloroquine resistant Plasmodium falciparum K1 infected in erythrocytes to IC50 for antimalarial activity against chloroquine sensitive Plasmodium falciparum 3D7 infected in erythrocytes. It is filed as functional.
Data set [8] is described as follows: Selectivity index, ratio of IC50 for cytotoxicity against human WRL68 cells to IC50 for antimalarial activity against Plasmodium falciparum K1 infected in erythrocytes. As to conditions: WRL68 cells versus Plasmodium falciparum K1 in erythrocytes, read-out: Ratio IC50. It is filed as toxicity, cell-based.
For data set [9], the system named is Plasmodium falciparum. Put plainly: Antimalarial activity against Plasmodium falciparum NF54 incubated for 48 hrs by NBT reagent based assay. It is filed as functional, organism-based. As to conditions: NF54, 48 h.

What is called IC50 is the midpoint of a concentration-inhibition curve.

Compound `Clc1ccc2c(NCCn3cncc3C3CCCC3)ccnc2c1` returned an IC50 with Plasmodium falciparum [1] of 340 nM.

As to `O=C1c2ccc(N3CCN(CCO)CC3)cc2C(=O)N1CCCNc1ccnc2cc(Cl)ccc12`, the selectivity ratio in data set [2] was greater than 4200.

Regarding `CCOC(=O)c1nn(CCNc2ccnc3cc(Cl)ccc23)c2c1C(c1ccccc1)C(C#N)=C(N)O2` (stereo not drawn), the values for the IC50 with Plasmodium falciparum [3] and in the data set on Plasmodium falciparum [4] were 19 nM and 419 nM, respectively. For the same compound, the IC50 at 72 h in data set [5] came to 81500 nM. Moreover, the selectivity ratio in data set [6] was found to be 4360; in data set [8] it was 195. The “Ratio IC50” value with Plasmodium falciparum [7] is recorded as 22.39.

For the compound `CCOC(=O)c1nn(CCNc2ccnc3cc(Cl)ccc23)c2c1C(c1ccc(O)cc1)C(C#N)=C(N)O2` (stereo not drawn), the IC50 is 15 nM with Plasmodium falciparum [3] and 2750 nM with Plasmodium falciparum [4]. For the same compound, the IC50 at 72 h in [5] was determined as 48600 nM. For the same compound, the selectivity ratio in data set [6] stood at 3200; in [8], 18. In addition, in the data set on Plasmodium falciparum [7], the “Ratio IC50” value was found to be 180.66.

For `CCOC(=O)c1nn(CCNc2ccnc3cc(Cl)ccc23)c2c1C(c1ccco1)C(C#N)=C(N)O2` (stereo not drawn), the IC50 with Plasmodium falciparum [3] came out at 25 nM; with Plasmodium falciparum [4], 207 nM. In addition, in [5], the half-maximal inhibitory concentration (IC50) at 72 h stood at 47600 nM. The selectivity ratio in [6] stood at 1920; in data set [8], 230. In addition, the “Ratio IC50” value in the data set with Plasmodium falciparum [7] came out at 8.34.

`CCOC(=O)c1nn(CCNc2ccnc3cc(Cl)ccc23)c2c1C(c1cccc([N+](=O)[O-])c1)C(C#N)=C(N)O2` (stereo not drawn): the IC50 in the data set on Plasmodium falciparum [3] came out at 28 nM; with Plasmodium falciparum [4] it was 106 nM. The IC50 at 72 h in data set [5] came to 35400 nM. The values for the selectivity ratio in data set [6] and in data set [8] were 1260 and 333, respectively. Moreover, the “Ratio IC50” value in the data set with Plasmodium falciparum [7] is on record as 3.8.

As to `CCOC(=O)c1nn(CCNc2ccnc3cc(Cl)ccc23)c2c1C(c1ccc(O)c(Br)c1)C(C#N)=C(N)O2` (stereo not drawn), the IC50 in the data set on Plasmodium falciparum [3] amounted to 23 nM; with Plasmodium falciparum [4] it was 232 nM. In addition, the concentration for half-maximal inhibition (IC50) at 72 h in [5] was 61600 nM. Moreover, the values for the selectivity ratio in data set [6] and in data set [8] were 2650 and 265, respectively. Besides, the “Ratio IC50” value in the data set on Plasmodium falciparum [7] is recorded as 10.

On to `CCOC(=O)c1nn(CCNc2ccnc3cc(Cl)ccc23)c2c1C(c1cccc(O)c1)C(C#N)=C(N)O2` (stereo not drawn), for which the IC50 was 17 nM in the data set on Plasmodium falciparum [3] and 1340 nM in the data set with Plasmodium falciparum [4]. Moreover, the IC50 at 72 h in data set [5] is 68600 nM. Also, the figures for the selectivity ratio in data set [6] and in [8] were 3960 and 51, respectively. Besides, in the data set on Plasmodium falciparum [7], the “Ratio IC50” value was found to be 77.46.

On to `CCOC(=O)c1nn(CCNc2ccnc3cc(Cl)ccc23)c2c1C(c1ccc(OC)cc1)C(C#N)=C(N)O2` (stereo not drawn), for which the IC50 in the data set with Plasmodium falciparum [3] came out at 21 nM; in the data set with Plasmodium falciparum [4] it was 254 nM. Moreover, the IC50 at 72 h in data set [5] turned out to be 131000 nM. Further, the selectivity ratio in data set [6] came to 6220; in [8] it was 514. Moreover, in the data set with Plasmodium falciparum [7], the “Ratio IC50” value is given as 12.1.

`CCOC(=O)c1nn(CCNc2ccnc3cc(Cl)ccc23)c2c1C(c1c(O)ccc3ccccc13)C(C#N)=C(N)O2` (stereo not drawn): the values for the IC50 with Plasmodium falciparum [3] and with Plasmodium falciparum [4] were 301 nM and 20 nM, respectively. Moreover, the IC50 at 72 h in [5] was 6690 nM. Also, the selectivity ratio was 22 in data set [6] and 334 in [8]. In addition, the “Ratio IC50” value with Plasmodium falciparum [7] amounted to 0.07.

As for `CCOC(=O)c1nn(CCNc2ccnc3cc(Cl)ccc23)c2c1C(c1cccs1)C(C#N)=C(N)O2` (stereo not drawn), the IC50 in the data set with Plasmodium falciparum [3] came to 23 nM; in the data set on Plasmodium falciparum [4], 37 nM. Moreover, in data set [5], the IC50 at 72 h came out at 59500 nM. Also, the selectivity ratio came to 2570 in [6] and 1590 in [8]. The “Ratio IC50” value in the data set with Plasmodium falciparum [7] came to 1.62.

In the case of `CCOC(=O)c1nn(CCNc2ccnc3cc(Cl)ccc23)c2c1C(c1ccc(C#N)cc1)C(C#N)=C(N)O2` (stereo not drawn), the IC50 with Plasmodium falciparum [3] is 19 nM; with Plasmodium falciparum [4], 37 nM. Moreover, in [5], the IC50 at 72 h is greater than 183000 nM. The selectivity ratio was greater than 9450 in data set [6] and greater than 4920 in [8]. The “Ratio IC50” value with Plasmodium falciparum [7] came to 1.92.

For the compound `CCOC(=O)c1nn(CCNc2ccnc3cc(Cl)ccc23)c2c1C(c1ccc(OCC)cc1)C(C#N)=C(N)O2` (stereo not drawn), the figures for the IC50 with Plasmodium falciparum [3] and in the data set with Plasmodium falciparum [4] were 24 nM and 86 nM, respectively. For the same compound, in [5], the IC50 at 72 h is 6980 nM. In addition, the selectivity ratio in data set [6] came to 290; in data set [8], 81. Moreover, the “Ratio IC50” value with Plasmodium falciparum [7] was found to be 3.57.

Turning to `CCOC(=O)c1nn(CCNc2ccnc3cc(Cl)ccc23)c2c1C(c1ccc([N+](=O)[O-])cc1)C(C#N)=C(N)O2` (stereo not drawn), the figures for the IC50 in the data set with Plasmodium falciparum [3] and with Plasmodium falciparum [4] were 110 nM and 294 nM, respectively. In data set [5], the IC50 at 72 h amounted to 56900 nM. Besides, the selectivity ratio turned out to be 563 in [6] and 193 in data set [8]. The “Ratio IC50” value in the data set with Plasmodium falciparum [7] amounted to 2.92.

Turning to `CCOC(=O)c1nn(CCNc2ccnc3cc(Cl)ccc23)c2c1C(c1cccc(OCC)c1)C(C#N)=C(N)O2` (stereo not drawn), the concentration for half-maximal inhibition (IC50) in the data set on Plasmodium falciparum [3] was 68 nM; in the data set with Plasmodium falciparum [4], 26 nM. Further, the IC50 at 72 h in data set [5] amounted to 20900 nM. The selectivity ratio in data set [6] stood at 308; in data set [8], 815. The “Ratio IC50” value in the data set with Plasmodium falciparum [7] was found to be 0.38.

On to `CCOC(=O)c1nn(CCNc2ccnc3cc(Cl)ccc23)c2c1C(c1ccc(Cl)cc1)C(C#N)=C(N)O2` (stereo not drawn), for which the IC50 with Plasmodium falciparum [3] amounted to 26 nM; with Plasmodium falciparum [4] it was 48 nM. The IC50 at 72 h in data set [5] stood at 12100 nM. Also, the selectivity ratio in data set [6] stood at 467; in data set [8] it was 252. In the data set with Plasmodium falciparum [7], the “Ratio IC50” value was 1.85.

Take `CCOC(=O)c1nn(CCNc2ccnc3cc(Cl)ccc23)c2c1C(c1ccccn1)C(C#N)=C(N)O2` (stereo not drawn): the IC50 with Plasmodium falciparum [3] worked out at 21 nM; in the data set on Plasmodium falciparum [4], 24 nM. In addition, the half-inhibitory concentration (IC50) at 72 h in data set [5] is 90500 nM. Also, the selectivity ratio in [6] worked out at 4350; in data set [8] it was 3780. For the same compound, in the data set with Plasmodium falciparum [7], the “Ratio IC50” value is given as 1.15.

Regarding `CCOC(=O)c1nn(CCNc2ccnc3cc(Cl)ccc23)c2c1C(c1ccc(O)cc1O)C(C#N)=C(N)O2` (stereo not drawn), the IC50 in the data set on Plasmodium falciparum [3] came out at 19 nM; in the data set on Plasmodium falciparum [4], 250 nM. In addition, the IC50 at 72 h in [5] was 23200 nM. For the same compound, the selectivity ratio came to 1220 in data set [6] and 93 in data set [8]. For the same compound, the “Ratio IC50” value in the data set on Plasmodium falciparum [7] amounted to 13.13.

As for `CCOC(=O)c1nn(CCNc2ccnc3cc(Cl)ccc23)c2c1C(c1ccccc1OC)C(C#N)=C(N)O2` (stereo not drawn), the figures for the IC50 in the data set on Plasmodium falciparum [3] and in the data set with Plasmodium falciparum [4] were 15 nM and 592 nM, respectively. In data set [5], the IC50 at 72 h was 26100 nM. The figures for the selectivity ratio in data set [6] and in data set [8] were 1730 and 44, respectively. Further, the “Ratio IC50” value in the data set on Plasmodium falciparum [7] is recorded as 39.18.

On to `CCOC(=O)c1nn(CCNc2ccnc3cc(Cl)ccc23)c2c1C(c1ccc(C(=O)O)cc1)C(C#N)=C(N)O2` (stereo not drawn), for which the IC50 in the data set on Plasmodium falciparum [3] was found to be 38 nM; with Plasmodium falciparum [4], 210 nM. Besides, the concentration for half-maximal inhibition (IC50) at 72 h in data set [5] is 86500 nM. For the same compound, the selectivity ratio in data set [6] was 2280; in [8], 411. For the same compound, the “Ratio IC50” value in the data set on Plasmodium falciparum [7] was found to be 5.53.

For `CCOC(=O)c1nn(CCNc2ccnc3cc(Cl)ccc23)c2c1C(c1ccc(Br)cc1)C(C#N)=C(N)O2` (stereo not drawn), the values for the IC50 with Plasmodium falciparum [3] and in the data set on Plasmodium falciparum [4] were 33 nM and 19 nM, respectively. Besides, the IC50 at 72 h in data set [5] came out at 5850 nM. The selectivity ratio in [6] is 178; in data set [8] it was 309. The “Ratio IC50” value with Plasmodium falciparum [7] is 0.58.

`O=C(/C=C/c1ccccc1Br)c1ccc(S(=O)(=O)NCCCNc2ccnc3cc(Cl)ccc23)cc1` had an IC50 in the data set on Plasmodium falciparum [9] of 100 nM.

Regarding `CCN(CC)CCCC(C)Nc1ccnc2cc(Cl)ccc12` (stereo not drawn) [CHLOROQUINE PHOSPHATE], in data set [5], the IC50 at 72 h is 60600 nM.
